Source: US8067427B2 (AstraZeneca AB, priority 2004, dated 2011)
In brackets after ≈: the same amount, converted by molar mass.

Assays:
tumour models = details: range of models, once-daily oral administration; cited from earlier work
[1] = Yield pressure test (compaction simulator, Heckel plot); type: physicochemical
Source text: (§1) The mechanical properties of materials such as powders may be described in terms of the following characteristics: • (a) Hardness, or resistance to deformation, which can be measured by an indentation hardness test; • (b) Yield pressure (denoted Py and also known as yield stress), that is the point at which plastic deformation occurs, which can be measured by compaction studies; • (c) Strain Rate Sensitivity (SRS), that is the percent increase in yield pressure from slow to fast punch velocity, which can be measured by compaction studies; and • (d) Modulus of Elasticity, that is the ratio of stress to elongation (strain), which can be measured by numerous methods that are well known to a person skilled in the art of formulation.
The yield pressure of a material can be determined by compressing it in a compaction simulator using a simple uniaxial saw tooth displacement/time profile and measuring the corresponding forces. The compaction simulator is fitted with 10 mm flat-faced punches and the material is compressed to zero porosity at a specific punch velocity. The force/displacement data generated are manipulated to produce a Heckel plot and the yield pressure is equivalent to the […] of the Heckel plot. This test can be performed at different punch velocities to determine the effect of scale-up on the deformation characteristics of the material. […]

VEGF RTK = details: cited from earlier work
physchem = details: water, 25 °C
[2] = Strain rate sensitivity (SRS); type: physicochemical; details: percent increase in yield pressure from slow to fast punch velocity
Source text: as §1
Materials can, in general, be classified by the way in which they deform under compressive force, either by brittle fracture or by plastic deformation. The degree of deformation for a brittle material is independent of the rate and duration of the compression event (that is the compression applied), giving a strain rate sensitivity value for such materials of 0% (zero %). […]
The strain rate sensitivity of a material can be calculated using the mean yield pressures (Py) calculated for a material at fast (300 mm s^−1) and slow (0.033 mm s^−1) punch velocities. […]

Row | yield pressure [1] [MPa] | solubility (physchem) [µg/mL] | solubility class per British Pharmacopoeia 2001-2002 classification system (Solubility in water) | Compound | anti-tumour activity (tumour models) | inhibition of VEGF RTK (VEGF RTK) | strain rate sensitivity [2] [%]
1 | 22 | 33 (≈ 69.4 µM) | practically insoluble | COc1cc2c(Nc3ccc(Br)cc3F)ncnc2cc1OCC1CCN(C)CC1 [ZD6474, 4-(4-bromo-2-fluoroanilino)-6-methoxy-7-(1-methylpiperidin-4-ylmethoxy)quinazoline] | broad-spectrum anti-tumour activity | potent inhibitor | 197
2 |  |  |  | O.OC[C@H]1O[C@@H](O[C@H]2[C@H](O)[C@@H](O)C(O)O[C@@H]2CO)[C@H](O)[C@@H](O)[C@H]1O (stereo partly shown) [Lactose monohydrate] |  |  | 19.4
